Like-named read-outs stand apart in the source and are kept apart here. Residues, ends and D or L forms follow the SMILES beside them. *: point of attachment. Cbz = O=C(OCc1ccccc1)*; CH2F = FC*
Tests used:
CDC25B [1] = target: T1, CDC25B (Homo sapiens, UniProt P30305); assay: Intrinsic fluorescence quenching of recombinant CDC25B catalytic domain (Stern-Volmer); type: binding; conditions: for KSV (Stern-Volmer constant): 0.2 µM wild-type CDC25B, emission 357 nm, 20 °C, no OMFP; for Kd: reciprocal of KSV, inhibitor concentration leading to 50% quenching of CDC25B emission, read-out: K′D of the complex, Free CDC25B•inhibitor; for K′D/Ki ratio: K′D of free CDC25B•inhibitor over Ki
T1 sequence (P30305 377-551 isoform P30305-2 limits assumed): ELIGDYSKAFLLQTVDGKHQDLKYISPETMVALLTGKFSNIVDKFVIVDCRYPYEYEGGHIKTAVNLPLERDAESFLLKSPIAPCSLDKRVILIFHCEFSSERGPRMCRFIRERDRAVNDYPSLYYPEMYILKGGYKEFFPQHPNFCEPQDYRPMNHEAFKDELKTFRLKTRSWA
Method: (§1) Fluorescence spectra were recorded at 20 °C using a computer-assisted Cary Eclipse spectrofluorimeter (Varian, Palo Alto, CA, USA) equipped with an electronic temperature controller. The excitation wavelength was set at 280 nm and the excitation and emission slits were set at 10 and 20 nm, respectively. A 500 µL final volume of a 0.2 µM solution of CDC25B or CDC25B-C473S dissolved in 20 mM Tris•HCl, pH 7.8, 0.5 mM TCEP was directly prepared in the fluorimetric cuvette in the absence or in the presence of OMFP and/or some NPA derivatives. Serial pre-dilutions of the NPA derivatives or OMFP at increasing concentration were prepared in DMSO or methanol, respectively. Alongside, a convenient amount of the enzyme pre-dilution was prepared just before its usage for the experiment and stored on ice. When the combined effect of NPA derivative and OMFP was investigated, two enzyme pre-dilutions were prepared in the absence or in the presence of 5 µM OMFP. In order to evaluate the specific effect produced by any addition of solvent/ligand on the intrinsic fluorescence of the enzyme, 495 µL of the enzyme pre-dilution were placed in the fluorimetric cuvette and the relative spectrum was recorded; after the addition of 5 µL of each pre-dilution of solvent/ligand and fast mixing, the spectrum was recorded again. This procedure, repeated for each experimental point, allowed a normalisation of the specific effects produced by solvent/ligands. Furthermore, a correction was also applied for the little inner-filter effect due to the absorbance at 280 nm of the NPA derivative used at different concentrations; on the other hand, no correction was necessary for OMFP. All spectra, recorded at a scan speed of 120 nm/min, were normalised and corrected.

OMFP-bound CDC25B-C473S [2] = target: T2, OMFP-bound CDC25B-C473S (Homo sapiens, UniProt P30305, C487S); assay: Intrinsic fluorescence quenching of CDC25B-C473S in the presence of 5 µM OMFP (Stern-Volmer); type: binding; conditions: reciprocal of KSV; presence of 5 µM OMFP; read-out: K′D of the complex, OMFP-bound CDC25B-C473S•inhibitor
T2 sequence (P30305 370-580 C487S): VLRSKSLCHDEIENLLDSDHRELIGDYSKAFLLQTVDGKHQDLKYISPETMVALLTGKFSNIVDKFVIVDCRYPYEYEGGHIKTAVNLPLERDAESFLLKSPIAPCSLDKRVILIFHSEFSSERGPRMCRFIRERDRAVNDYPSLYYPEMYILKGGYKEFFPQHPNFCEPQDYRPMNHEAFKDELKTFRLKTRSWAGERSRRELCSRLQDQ
Description: (§2) The mutant form of CDC25B, carrying the C473S replacement (CDC25B-C473S), was obtained through site-directed mutagenesis of the CDC25B catalytic segment cloned in pET28a-CDC25B-cd. To this aim, the QuikChange site-directed mutagenesis kit (Stratagene, La Jolla, CA, USA) and the forward and reverse primers for C473S replacement (5′d-[…]-3′ and 5′d-[…]-3′) were used. Positive clones were obtained, and the nucleotide sequencing of the mutagenised segment excluded the presence of undesired mutations. The new vector was called pET28a-CDC25B-C473S-cd. The expression of the new vector and the purification of the recombinant form of CDC25B-C473S catalytic domain were carried out as previously reported for wild-type CDC25B catalytic domain[18], and similar yields were obtained. As expected, the mutant enzyme was unable to hydrolyse the synthetic substrate OMFP, when its activity was checked with the fluorimetric assay method previously described.
as §1

OMFP-bound CDC25B-C473S [3] = assay: as above; type: binding; conditions: for KSV (Stern-Volmer constant): 0.2 µM CDC25B-C473S, in the presence of 5 µM OMFP; for K′D/Ki ratio: K′D of OMFP-bound CDC25B-C473S•inhibitor over Ki
Description: as §2, §1

CDC25B [4] = target: T3, CDC25B (Homo sapiens, UniProt P30305); assay: Kinetic studies of CDC25B phosphatase inhibition (OMFP substrate); type: biochemical; conditions: putative from Lineweaver-Burk plots (ref 18), confirmed by the fluorescence studies of this work
T3 sequence (P30305 1-580): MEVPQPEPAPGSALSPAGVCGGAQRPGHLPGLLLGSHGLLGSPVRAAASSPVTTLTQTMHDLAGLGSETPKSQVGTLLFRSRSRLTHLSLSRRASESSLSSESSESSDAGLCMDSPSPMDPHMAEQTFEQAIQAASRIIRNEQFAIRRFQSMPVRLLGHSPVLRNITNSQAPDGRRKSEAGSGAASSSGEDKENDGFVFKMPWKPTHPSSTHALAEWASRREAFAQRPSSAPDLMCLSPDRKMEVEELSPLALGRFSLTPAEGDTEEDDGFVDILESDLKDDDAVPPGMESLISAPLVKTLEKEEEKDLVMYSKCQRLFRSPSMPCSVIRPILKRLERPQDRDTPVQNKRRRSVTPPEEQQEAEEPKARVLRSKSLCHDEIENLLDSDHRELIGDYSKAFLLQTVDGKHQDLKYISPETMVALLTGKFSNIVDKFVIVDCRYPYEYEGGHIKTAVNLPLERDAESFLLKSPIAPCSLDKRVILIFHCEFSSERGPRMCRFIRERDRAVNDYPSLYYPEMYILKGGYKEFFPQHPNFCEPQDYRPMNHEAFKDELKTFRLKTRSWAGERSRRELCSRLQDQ

CDC25B [5] = target: T3, CDC25B; conditions: cited from earlier work
some tumour cells = tested on: some tumour cells; parameters: method as in PMID 22524450; conditions: 200 µM; cited from earlier work
A375 cells = assay: Apoptosis by cytofluorimetry after PI incorporation (subdiploid DNA content); type: cell-based, human; conditions: 100 µM Z-VAD-FMK plus 10 µM 4a, 48 h
Method: (§3) The human melanoma cell lines A375 and A2058, deriving from a primary tumour or lymph nodal metastasis, respectively, were kindly provided from CEINGE (Naples, Italy). Cells were grown in DMEM supplemented with 10% FBS, 2 mM L-glutamine, 100 IU/mL penicillin G and 100 µg/mL streptomycin in humidified incubator at 37 °C under 5% CO2 atmosphere. The cell line BJ-5ta, a human skin fibroblast immortalised with the human telomerase reverse transcriptase[30] was cultured in a 4:1 mixture of DMEM and Medium 199 supplemented with 4 mM L-glutamine, 4.5 g/L glucose, 1.5 g/L sodium bicarbonate, 10% FBS, 100 IU/mL penicillin G, […] streptomycin in humidified incubator at 37 °C under 5% CO2 atmosphere. All cells were split and seeded every 3 days and used during their exponential phase of growth. Cell treatments were usually carried out after 24 h from plating.
(§4) Cytofluorimetric analysis was used to determine the number of apoptotic nuclei essentially as previously described. Briefly, cells were seeded into six-well plates at 3 × 10^5 cells/well and after 24 h were treated with 4a or 0.5% (v/v) DMSO and incubated for different times. Then, cells were harvested with trypsin, and centrifuged, and the pellets were resuspended in 200 µL of a hypotonic lysis solution containing 50 µg/mL PI. After incubation at 4 °C for 30 min, cells were analysed with a FACScan flow cytometer (Becton Dickinson, Franklin Lakes, NJ, USA) to evaluate the presence of nuclei with DNA content lower than diploid.

A2058 cells = assay: as above; type: cell-based, human; conditions: 100 µM Z-VAD-FMK plus 10 µM 4a, 48 h
Method: as §3, §4

CCOC(=O)c1cccc(Nc2cccc3ccccc23)c1 [compound 4]
KSV (Stern-Volmer constant) (CDC25B [1]): 0.016 µM⁻¹
Kd (CDC25B [1]): > 50 µM
Kd (OMFP-bound CDC25B-C473S [2]): 43 µM
KSV (Stern-Volmer constant) (OMFP-bound CDC25B-C473S [3]): 0.023 µM⁻¹
K′D/Ki ratio (OMFP-bound CDC25B-C473S [3]): 5.9
Inhibition mechanism (CDC25B [4]): uncompetitive

COc1ccc2c(c1)Oc1cc(OP(=O)(O)O)ccc1C21OC(=O)c2ccccc21 (stereo not drawn) [OMFP, O-methylfluorescein phosphate]
Km (CDC25B [5]; read-out: KM of the wild type CDC25B for the substrate): 2.7 ± 0.2 µM

Nc1ccc(Nc2cccc(C(=O)O)c2)c2ccccc12 [7i]
KSV (Stern-Volmer constant) (CDC25B [1]): 0.069 µM⁻¹
K′D/Ki ratio (CDC25B [1]): 10.4
Kd (CDC25B [1]): 14.5 µM
Inhibition mechanism (CDC25B [4]): noncompetitive

O=C(O)c1ccc(C(=O)c2ccccc2C(=O)O)cc1C(=O)O [NSC28620]
Inhibition mechanism (CDC25B [5]; lead compound): reversible competitive
cell growth rate of some tumour cells (some tumour cells): reduced

CCOC(=O)c1ccccc1Nc1cccc2ccccc12 [compound 3]
KSV (Stern-Volmer constant) (CDC25B [1]): 0.011 µM⁻¹
Kd (CDC25B [1]): > 50 µM
Kd (OMFP-bound CDC25B-C473S [2]): 24 µM
KSV (Stern-Volmer constant) (OMFP-bound CDC25B-C473S [3]): 0.042 µM⁻¹
K′D/Ki ratio (OMFP-bound CDC25B-C473S [3]): 8.6
Inhibition mechanism (CDC25B [4]): uncompetitive

O=C(O)c1ccccc1Nc1ccc(O)c2ccccc12 [6e]
KSV (Stern-Volmer constant) (CDC25B [1]): 0.035 µM⁻¹
K′D/Ki ratio (CDC25B [1]): 10.6
Kd (CDC25B [1]): 28.6 µM
Inhibition mechanism (CDC25B [4]): noncompetitive

Nc1cccc2c(Nc3cccc(C(=O)O)c3)cccc12 [7j]
KSV (Stern-Volmer constant) (CDC25B [1]): 0.129 µM⁻¹
K′D/Ki ratio (CDC25B [1]): 9.7
Kd (CDC25B [1]): 7.8 µM
Kd (OMFP-bound CDC25B-C473S [2]): 15.1 µM
Inhibition mechanism (CDC25B [4]): noncompetitive

COC(=O)C[C@H](NC(=O)[C@H](C)NC(=O)[C@@H](NC(=O)OCc1ccccc1)C(C)C)C(=O)CF [Z-VAD-FMK, reference compound] (Cbz-Val-Ala-Asp(OMe)-CH2F)
apoptosis level induced by 4a upon exposure to the caspase inhibitor (A375 cells): partial but significant reduction
apoptosis level induced by 4a upon exposure to the caspase inhibitor (A2058 cells): partial but significant reduction

— paper PMC7580834, “Inhibition mechanism of naphthylphenylamine derivatives acting on the CDC25B dual phosphatase and analysis of the molecular processes involved in the high cytotoxicity exerted by one selected derivative in melanoma cells” (Journal of Enzyme Inhibition and Medicinal Chemistry, 2020)
